In ChEMBL document CHEMBL5532748, “Design, synthesis and antibacterial activity evaluation of ebselen derivatives in NDM-1 producing bacteria” (RSC Med Chem, 2024):
Values after ≈ are worked out from the molar mass of the structure shown. Active and inactive are the calls of the source. The rule behind the calls is not given here.

How the values were obtained:
Escherichia coli [1] = assay: Antibacterial activity against Escherichia coli TG-1 transfected with Klebsiella pneumoniae full-length NDM-1 beta-lactamase gene; type: functional
Escherichia coli [2] = assay: Antibacterial activity against Escherichia coli TG-1 transfected with Klebsiella pneumoniae full-length NDM-1 beta lactamase gene incubated in presence of meropenem; type: functional
Escherichia coli [3] = assay: Synergistic antibacterial activity against Escherichia coli TG-1 transfected with Klebsiella pneumoniae full-length NDM-1 beta lactamase gene assessed as fractional inhibitory concentration index in presence of meropenem; type: functional
Escherichia coli [4] = assay: Antibacterial activity against Escherichia coli BJE-4 expressing NDM-1 gene; type: functional
Escherichia coli [5] = assay: Antibacterial activity against Escherichia coli BJE-4 expressing NDM-1 gene in presence of meropenem; type: functional
Escherichia coli [6] = assay: Synergistic antibacterial activity against Escherichia coli BJE-4 expressing NDM-1 gene assessed as fractional inhibitory concentration index in presence of meropenem; type: functional
Escherichia coli [7] = assay: Antibacterial activity against Escherichia coli producing NDM-1 and CTX-M-15 beta lactamases; type: functional
Escherichia coli [8] = assay: Antibacterial activity against Escherichia coli producing NDM-1, CTX-M-15 and SHV-12 beta lactamases; type: functional
Citrobacter freundii [9] = assay: Antibacterial activity against Citrobacter freundii producing NDM-1 and SHV-12 beta-lactamases; type: functional
Citrobacter freundii [10] = assay: Antibacterial activity against Citrobacter freundii producing NDM-1, CTX-M-3 and KPC-2 beta-lactamases; type: functional
Enterobacter cloacae [11] = assay: Antibacterial activity against Enterobacter cloacae producing NDM-1, CTX-M-14 and TEM-1 beta-lactamases; type: functional
Enterobacter cloacae [12] = assay: Antibacterial activity against Enterobacter cloacae producing NDM-1, IMP-4 and TEM-1 beta-lactamases; type: functional
Enterobacter cloacae [13] = assay: Antibacterial activity against Enterobacter cloacae producing NDM-1, TEM-1 and SHV-12 beta-lactamases; type: functional
Klebsiella pneumoniae [14] = assay: Antibacterial activity against Klebsiella pneumoniae producing NDM-1, KPC-2 and SHV-12 beta-lactamases; type: functional
Escherichia coli [15] = assay: Antibacterial activity against Escherichia coli producing NDM-1 and CTX-M-15 beta-lactamases in presence of meropenem; type: functional
Escherichia coli [16] = assay: Antibacterial activity against Escherichia coli producing NDM-1, CTX-M-15 and SHV-12 beta-lactamases in presence of meropenem; type: functional
Citrobacter freundii [17] = assay: Antibacterial activity against Citrobacter freundii producing NDM-1 and SHV-12 in presence of meropenem; type: functional
Citrobacter freundii [18] = assay: Antibacterial activity against Citrobacter freundii producing NDM-1, CTX-M-3 and KPC-2 beta-lactamases in presence of meropenem; type: functional
Enterobacter cloacae [19] = assay: Antibacterial activity against Enterobacter cloacae producing NDM-1, CTX-M-14 and TEM-1 beta-lactamases in presence of meropenem; type: functional
Enterobacter cloacae [20] = assay: Antibacterial activity against Enterobacter cloacae producing NDM-1, IMP-4 and TEM-1 beta-lactamases in presence of meropenem; type: functional
[21] = target: Metallo-beta-lactamase type 2 (Bacteria) (UniProt C7C422); assay: Binding affinity to wild type NDM-1 (unknown origin) assessed as change in NDM-1 enzyme complex at 100 uM by ESI-MS analysis
Sequence of Metallo-beta-lactamase type 2 (Bacteria) (C7C422 whole entry): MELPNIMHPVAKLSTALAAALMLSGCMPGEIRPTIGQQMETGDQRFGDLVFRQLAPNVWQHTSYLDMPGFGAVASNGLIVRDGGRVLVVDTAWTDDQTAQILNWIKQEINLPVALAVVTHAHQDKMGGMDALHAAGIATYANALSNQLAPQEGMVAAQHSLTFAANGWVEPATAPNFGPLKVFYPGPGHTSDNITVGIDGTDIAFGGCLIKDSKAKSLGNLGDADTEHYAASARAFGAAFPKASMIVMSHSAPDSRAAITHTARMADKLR

Enterobacter cloacae [22] = assay: Antibacterial activity against Enterobacter cloacae producing NDM-1, TEM-1 and SHV-12 beta-lactamase in presence of meropenem; type: functional
Klebsiella pneumoniae [23] = assay: Antibacterial activity against Klebsiella pneumoniae producing NDM-1, KPC-2 and SHV-12 beta-lactamases in presence of meropenem; type: functional
Escherichia coli [24] = assay: Synergistic antibacterial activity against Escherichia coli producing NDM-1 and CTX-M-15 beta-lactamases assessed as fractional inhibitory concentration index in presence of meropenem; type: functional
Escherichia coli [25] = assay: Synergistic antibacterial activity against Escherichia coli producing NDM-1, CTX-M-15 and SHV-12 beta-lactamases assessed as fractional inhibitory concentration index in presence of meropenem; type: functional
Citrobacter freundii [26] = assay: Synergistic antibacterial activity against Citrobacter freundii producing NDM-1 and SHV-12 beta-lactamases assessed as fractional inhibitory concentration index in presence of meropenem; type: functional
Citrobacter freundii [27] = assay: Synergistic antibacterial activity against Citrobacter freundii producing NDM-1, CTX-M-3 and KPC-2 beta-lactamases assessed as fractional inhibitory concentration index in presence of meropenem; type: functional
Enterobacter cloacae [28] = assay: Synergistic antibacterial activity against Enterobacter cloacae producing NDM-1, CTX-M-14 and TEM-1 beta-lactamases assessed as fractional inhibitory concentration index in presence of meropenem; type: functional
Enterobacter cloacae [29] = assay: Synergistic antibacterial activity against Enterobacter cloacae producing NDM-1, IMP-4 and TEM-1 beta-lactamases assessed as fractional inhibitory concentration index in presence of meropenem; type: functional
Enterobacter cloacae [30] = assay: Synergistic antibacterial activity against Enterobacter cloacae producing NDM-1, TEM-1 and SHV-12 beta-lactamases assessed as fractional inhibitory concentration index in presence of meropenem; type: functional
Klebsiella pneumoniae [31] = assay: Synergistic antibacterial activity against Klebsiella pneumoniae producing NDM-1, KPC-2 and SHV-12 beta-lactamases assessed as fractional inhibitory concentration index in presence of meropenem; type: functional
[32] = target: Metallo-beta-lactamase type 2 (Bacteria, UniProt C7C422); assay: Inhibition of NDM-1 (unknown origin) using nitrocefin as substrate incubated for 15 to 60 mins by absorption based analysis
Sequence of Metallo-beta-lactamase type 2 (C7C422 whole entry): as above

HEK-293T = assay: Cytotoxicity against HEK293T cells assessed as reduction in cell viability at 8 to 64 ug/ml incubated for 48 hrs by MTT assay; type: toxicity, cell-based; details: human, dose 8-64 µg/ml
Caco-2 [33] = assay: Antibacterial activity against Salmonella lomita SL131 infected in human Caco-2 cells assessed as reduction in bacterial survival rate at 64 ug/ml incubated for 6 hrs by agar dilution method; type: functional, cell-based; details: Salmonella enterica subsp. enterica serovar Lomita, dose 64.0 µg/ml
Caco-2 [34] = assay: Antibacterial activity against Salmonella lomita SL131 infected in human Caco-2 cells assessed as reduction in bacterial survival rate at 32 to 64 ug/ml incubated for 6 hrs in presence of meropenem by agar dilution method; type: functional, cell-based; details: Salmonella enterica subsp. enterica serovar Lomita, dose 32-64 µg/ml

## CCS(=O)(=O)NCCn1[se]c2ccccc2c1=O
Escherichia coli [1]
  MIC: > 64 µg/mL
Escherichia coli [2]
  MIC: 16 µg/mL
Escherichia coli [3]
  fractional inhibitory concentration index (FICI): 0.5
Escherichia coli [4]
  MIC: > 16 µg/mL
Escherichia coli [5]
  MIC: 8 µg/mL
Escherichia coli [6]
  fractional inhibitory concentration index (FICI): 0.625

## CC(C)(C)C(=O)NCCn1[se]c2ccccc2c1=O
Escherichia coli [1]
  MIC: > 64 µg/mL
Escherichia coli [2]
  MIC: 64 µg/mL
Escherichia coli [3]
  fractional inhibitory concentration index (FICI): 2
Escherichia coli [4]
  MIC: > 16 µg/mL
Escherichia coli [5]
  MIC: 8 µg/mL
Escherichia coli [6]
  fractional inhibitory concentration index (FICI): 0.625

## CC(C)(C)OC(=O)NCCCCCCn1[se]c2ccccc2c1=O
Escherichia coli [1]
  MIC: > 64 µg/mL
Escherichia coli [2]
  MIC: 4 µg/mL
Escherichia coli [3]
  fractional inhibitory concentration index (FICI): 0.125
Escherichia coli [4]
  MIC: > 16 µg/mL
Escherichia coli [5]
  MIC: 4 µg/mL
Escherichia coli [6]
  fractional inhibitory concentration index (FICI): 0.313
Escherichia coli [7]
  MIC: > 64 µg/mL
Escherichia coli [8]
  MIC: > 64 µg/mL
Citrobacter freundii [9]
  MIC: > 64 µg/mL
Citrobacter freundii [10]
  MIC: > 128 µg/mL
Enterobacter cloacae [11]
  MIC: > 128 µg/mL
Enterobacter cloacae [12]
  MIC: > 64 µg/mL
Enterobacter cloacae [13]
  MIC: > 64 µg/mL
Klebsiella pneumoniae [14]
  MIC: > 64 µg/mL
Escherichia coli [15]
  MIC: 8 µg/mL
Escherichia coli [16]
  MIC: 8 µg/mL
Citrobacter freundii [17]
  MIC: 8 µg/mL
Citrobacter freundii [18]
  MIC: 16 µg/mL
Enterobacter cloacae [19]
  MIC: 8 µg/mL
Enterobacter cloacae [20]
  MIC: 16 µg/mL
[21]
  Activity: Active
Enterobacter cloacae [22]
  MIC: 4 µg/mL
Klebsiella pneumoniae [23]
  MIC: 16 µg/mL
Escherichia coli [24]
  fractional inhibitory concentration index (FICI): 0.25
Escherichia coli [25]
  fractional inhibitory concentration index (FICI): 0.25
Citrobacter freundii [26]
  fractional inhibitory concentration index (FICI): 0.25
Citrobacter freundii [27]
  fractional inhibitory concentration index (FICI): 0.375
Enterobacter cloacae [28]
  fractional inhibitory concentration index (FICI): 0.188
Enterobacter cloacae [29]
  fractional inhibitory concentration index (FICI): 0.5
Enterobacter cloacae [30]
  fractional inhibitory concentration index (FICI): 0.125
Klebsiella pneumoniae [31]
  fractional inhibitory concentration index (FICI): 0.5
[32]
  IC50: 26.8 µM
HEK-293T
  Activity: Non-Toxic
Caco-2 [33]
  Activity: inactive
Caco-2 [34]
  Activity: Active

## O=c1c2ccccc2[se]n1-c1ccc(-c2ccccc2)cc1
Escherichia coli [1]
  MIC: 64 µg/mL (≈ 183 µM)
Escherichia coli [2]
  MIC: 64 µg/mL
Escherichia coli [3]
  fractional inhibitory concentration index (FICI): 2
Escherichia coli [4]
  MIC: > 16 µg/mL
Escherichia coli [5]
  MIC: 8 µg/mL
Escherichia coli [6]
  fractional inhibitory concentration index (FICI): 0.625

## CC(C)(C)OC(=O)NCCCCn1[se]c2ccccc2c1=O
Escherichia coli [1]
  MIC: > 64 µg/mL
Escherichia coli [2]
  MIC: 32 µg/mL
Escherichia coli [3]
  fractional inhibitory concentration index (FICI): 1
Escherichia coli [4]
  MIC: > 16 µg/mL
Escherichia coli [5]
  MIC: 8 µg/mL
Escherichia coli [6]
  fractional inhibitory concentration index (FICI): 0.625

## Cc1ccc(S(=O)(=O)NCCn2[se]c3ccccc3c2=O)cc1
Escherichia coli [1]
  MIC: > 64 µg/mL
Escherichia coli [2]
  MIC: ≤ 8 µg/mL
Escherichia coli [3]
  fractional inhibitory concentration index (FICI): 0.25
Escherichia coli [4]
  MIC: > 16 µg/mL
Escherichia coli [5]
  MIC: 8 µg/mL
Escherichia coli [6]
  fractional inhibitory concentration index (FICI): 0.625
